In ChEMBL document CHEMBL1134436, “Significance of hydrogen bonding at the S(1)' subsite of calpain I” (Bioorg Med Chem Lett, 2001):

Target: T1, Calpain-1 catalytic subunit (Sus scrofa, UniProt P35750)
T1 sequence (P35750 whole entry): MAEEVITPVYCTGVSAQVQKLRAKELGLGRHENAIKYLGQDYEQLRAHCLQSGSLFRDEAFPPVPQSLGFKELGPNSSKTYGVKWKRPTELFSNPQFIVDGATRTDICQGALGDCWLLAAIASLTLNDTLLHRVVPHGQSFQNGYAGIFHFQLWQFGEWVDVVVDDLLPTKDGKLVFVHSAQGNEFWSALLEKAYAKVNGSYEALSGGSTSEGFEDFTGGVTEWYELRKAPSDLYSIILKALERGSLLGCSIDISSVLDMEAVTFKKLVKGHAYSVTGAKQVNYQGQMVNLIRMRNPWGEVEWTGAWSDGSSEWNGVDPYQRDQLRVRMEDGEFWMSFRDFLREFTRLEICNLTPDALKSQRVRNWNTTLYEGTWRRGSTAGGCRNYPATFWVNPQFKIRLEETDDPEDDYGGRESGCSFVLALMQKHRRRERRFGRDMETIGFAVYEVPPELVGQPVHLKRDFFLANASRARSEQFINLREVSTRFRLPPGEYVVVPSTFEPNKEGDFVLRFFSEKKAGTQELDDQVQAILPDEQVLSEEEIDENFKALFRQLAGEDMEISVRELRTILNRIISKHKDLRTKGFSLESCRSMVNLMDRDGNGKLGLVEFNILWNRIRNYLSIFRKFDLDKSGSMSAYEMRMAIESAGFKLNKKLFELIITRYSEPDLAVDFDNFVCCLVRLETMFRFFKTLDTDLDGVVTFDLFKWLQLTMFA
Experiment: Binding affinity was evaluated against porcine erythrocyte Calpain 1 at the S1 subsite of the enzyme

Ki	SMILES
72 nM	CC(C)C[C@H](NC(=O)OCc1ccccc1)C(=O)N[C@@H](Cc1ccccc1)C(=O)C(=O)NCCc1ccccc1
673 nM	CC(C)C[C@H](NC(=O)OCc1ccccc1)C(=O)N[C@@H](Cc1ccccc1)C(=O)C(=O)N(C)OCc1ccccc1
200 nM	CCNC(=O)C(=O)[C@H](Cc1ccccc1)NC(=O)[C@H](CC(C)C)NC(=O)OCc1ccccc1
107 nM	CCCNC(=O)C(=O)[C@H](Cc1ccccc1)NC(=O)[C@H](CC(C)C)NC(=O)OCc1ccccc1
76000 nM	CCN(CC)C(=O)C(=O)[C@H](Cc1ccccc1)NC(=O)[C@H](CC(C)C)NC(=O)OCc1ccccc1
45 nM	CC(C)C[C@H](NC(=O)OCc1ccccc1)C(=O)N[C@@H](Cc1ccccc1)C(=O)C(=O)NOCc1ccccc1
28000 nM	CCN(OCc1ccccc1)C(=O)C(=O)[C@H](Cc1ccccc1)NC(=O)[C@H](CC(C)C)NC(=O)OCc1ccccc1
62 nM	CCONC(=O)C(=O)[C@H](Cc1ccccc1)NC(=O)[C@H](CC(C)C)NC(=O)OCc1ccccc1
750 nM	CCON(C)C(=O)C(=O)[C@H](Cc1ccccc1)NC(=O)[C@H](CC(C)C)NC(=O)OCc1ccccc1
